From patent US9796733B2, “Imidazo-pyrazine derivatives useful as soluble guanylate cyclase activators” (Merck Sharp & Dohme Corp., priority 2014, dated 2017)

Target: T1, sGC α1/β1 heterodimer (Homo sapiens, UniProt Q02108+Q02153)
T1 construct: expressed in transfected cells; host or cells: CHO-K1 (clone #7, CHO-K1/sGC)
T1 sequence (Q02108 1-690): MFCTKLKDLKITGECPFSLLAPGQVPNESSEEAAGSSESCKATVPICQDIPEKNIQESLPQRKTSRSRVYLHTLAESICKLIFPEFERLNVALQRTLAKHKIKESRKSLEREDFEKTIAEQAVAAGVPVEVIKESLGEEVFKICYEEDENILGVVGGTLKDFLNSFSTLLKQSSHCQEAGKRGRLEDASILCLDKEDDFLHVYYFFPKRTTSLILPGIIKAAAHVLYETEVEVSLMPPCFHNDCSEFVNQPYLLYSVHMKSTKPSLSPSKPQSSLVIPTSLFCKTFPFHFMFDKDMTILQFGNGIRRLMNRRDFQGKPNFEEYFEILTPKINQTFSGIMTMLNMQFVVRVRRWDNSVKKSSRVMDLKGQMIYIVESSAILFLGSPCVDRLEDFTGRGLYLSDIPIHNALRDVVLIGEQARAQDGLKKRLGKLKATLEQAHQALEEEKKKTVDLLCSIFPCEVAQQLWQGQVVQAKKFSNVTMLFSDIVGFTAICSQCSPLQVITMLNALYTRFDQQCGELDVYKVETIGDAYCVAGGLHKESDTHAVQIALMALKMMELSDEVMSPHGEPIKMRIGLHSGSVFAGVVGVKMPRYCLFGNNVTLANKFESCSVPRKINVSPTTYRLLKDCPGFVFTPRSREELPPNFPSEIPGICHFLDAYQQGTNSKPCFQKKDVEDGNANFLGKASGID
T1 sequence (Q02153 1-619): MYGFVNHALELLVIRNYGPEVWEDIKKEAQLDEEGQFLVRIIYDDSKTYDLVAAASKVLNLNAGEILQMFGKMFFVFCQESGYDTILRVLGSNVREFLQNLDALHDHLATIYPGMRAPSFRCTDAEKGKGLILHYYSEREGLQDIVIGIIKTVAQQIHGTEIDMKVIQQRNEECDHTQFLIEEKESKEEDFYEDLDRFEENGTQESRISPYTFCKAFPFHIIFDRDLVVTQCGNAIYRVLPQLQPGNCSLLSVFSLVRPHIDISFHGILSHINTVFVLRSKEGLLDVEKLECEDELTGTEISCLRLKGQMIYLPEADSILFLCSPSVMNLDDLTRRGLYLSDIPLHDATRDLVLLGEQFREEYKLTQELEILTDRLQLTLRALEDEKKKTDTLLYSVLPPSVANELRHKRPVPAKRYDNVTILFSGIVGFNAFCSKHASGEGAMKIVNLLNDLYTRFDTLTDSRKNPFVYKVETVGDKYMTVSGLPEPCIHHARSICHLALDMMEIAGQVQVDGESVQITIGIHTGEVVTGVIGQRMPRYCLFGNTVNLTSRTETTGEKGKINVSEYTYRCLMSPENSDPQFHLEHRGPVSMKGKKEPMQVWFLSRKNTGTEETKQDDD
Experiment: Cell-based sGC functional assay (CASA assay): cGMP generation in CHO-K1/sGC cells, HTRF detection
Conditions: for Emax: CHO-K1, percent activation relative to standard Compound A in CHO-K1/sGC cells, read-out: % Act.; for EC50: inflection point (IP) of cGMP generation in CHO-K1/sGC cells, 4P fit, activity expressed as percentage of Compound A
Procedure, shortened: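 cGMP was quantified by HTRF after 1 hr, 37° C exposure of thawed CHO-K1 cells expressing sGC α1/β1 to compound, with or without 1 μM DETA-NO. IBMX (0.5 mM) blocked cGMP breakdown, and DMSO was 2.5% final. Percent of standard Compound A's maximal cGMP was fitted (4P) for inflection point.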

| Emax | EC50 | Structure (SMILES) |
| --- | --- | --- |
| 109% | 0.012 µM | CC1(c2ccc(F)cc2)C(=O)Nc2nc(-c3cn4ccnc4c(Cc4ccccc4)n3)nc(N)c21 (stereo not shown) [Example 93A, 4-amino-2-(8-benzylimidazo[1,2-a]pyrazin-6-yl)-5-(4-fluorophenyl)-5-methyl-5H-pyrrolo[2,3-d]pyrimidin-6(7H)-one] |
| 108% | 0.005 µM | CC1(c2ccc(F)cc2)C(=O)Nc2nc(-c3cn4ccnc4c(Cc4cccc(Cl)c4)n3)nc(N)c21 (stereo not shown) [Example 94A, 4-amino-2-(8-(3-chlorobenzyl)imidazo[1,2-a]pyrazin-6-yl)-5-(4-fluorophenyl)-5-methyl-5H-pyrrolo[2,3-d]pyrimidin-6(7H)-one] |
| 109% | 0.004 µM | CC1(c2ccc(Cl)cc2)C(=O)Nc2nc(-c3cn4ccnc4c(Cc4cccc(Cl)c4)n3)nc(N)c21 (stereo not shown) [Example 95A, 4-amino-2-(8-(3-chlorobenzyl)imidazo[1,2-a]pyrazin-6-yl)-5-(4-chlorophenyl)-5-methyl-5H-pyrrolo[2,3-d]pyrimidin-6(7H)-one] |
| 106% | 0.004 µM | CC1(c2ccc(F)cc2)C(=O)Nc2nc(-c3cn4ccnc4c(Cc4ccc(F)c(F)c4)n3)nc(N)c21 (stereo not shown) [Example 96A, 4-amino-2-(8-(3,4-difluorobenzyl)imidazo[1,2-a]pyrazin-6-yl)-5-(4-fluorophenyl)-5-methyl-5H-pyrrolo[2,3-d]pyrimidin-6(7H)-one] |
| 145% | 0.005 µM | CC1(c2ccc(Cl)cc2)C(=O)Nc2nc(-c3cn4ccnc4c(Cc4ccc(F)c(F)c4)n3)nc(N)c21 (stereo not shown) [Example 97A, 4-amino-5-(4-chlorophenyl)-2-(8-(3,4-difluorobenzyl)imidazo[1,2-a]pyrazin-6-yl)-5-methyl-5H-pyrrolo[2,3-d]pyrimidin-6(7H)-one] |
| 110% | 0.013 µM | CC1(c2ccc(F)cc2)C(=O)Nc2nc(-c3cn4ccnc4c(Cc4c(F)ccc(F)c4F)n3)nc(N)c21 (stereo not shown) [Example 98A, 4-amino-5-(4-fluorophenyl)-5-methyl-2-(8-(2,3,6-trifluorobenzyl)imidazo[1,2-a]pyrazin-6-yl)-5H-pyrrolo[2,3-d]pyrimidin-6(7H)-one] |
| 119% | 0.011 µM | CC1(c2ccc(Cl)cc2)C(=O)Nc2nc(-c3cn4ccnc4c(Cc4ccc(F)cc4)n3)nc(N)c21 (stereo not shown) [Example 99A, 4-amino-5-(4-chlorophenyl)-2-(8-(4-fluorobenzyl)imidazo[1,2-a]pyrazin-6-yl)-5-methyl-5H-pyrrolo[2,3-d]pyrimidin-6(7H)-one] |
| 116% | 0.034 µM | CC1(c2ccccc2)C(=O)Nc2nc(-c3cn4ccnc4c(Cc4cccc(F)c4)n3)nc(N)c21 (stereo not shown) [Example 101B, 4-amino-2-(8-(3-fluorobenzyl)imidazo[1,2-a]pyrazin-6-yl)-5-methyl-5-phenyl-5H-pyrrolo[2,3-d]pyrimidin-6(7H)-one] |
| 89% | 0.015 µM | CC1(c2ccccc2)C(=O)Nc2nc(-c3cn4ccnc4c(Cc4ccccc4)n3)nc(N)c21 (stereo not shown) [Example 102B, 4-amino-2-(8-benzylimidazo[1,2-a]pyrazin-6-yl)-5-methyl-5-phenyl-5H-pyrrolo[2,3-d]pyrimidin-6(7H)-one] |
| 85% | 0.018 µM | CC1(c2ccccn2)C(=O)Nc2nc(-c3cn4ccnc4c(Cc4ccc(F)cc4)n3)nc(N)c21 (stereo not shown) [Example 103B, 4-amino-2-(8-(4-fluorobenzyl)imidazo[1,2-a]pyrazin-6-yl)-5-methyl-5-(pyridin-2-yl)-5H-pyrrolo[2,3-d]pyrimidin-6(7H)-one] |
| 132% | 0.396 µM | Nc1nc(-c2cn3ccnc3c(Cc3ccc(F)cc3)n2)nc2c1C(c1ccc(F)cn1)(C1CC1)C(=O)N2 (stereo not shown) [Example 104A, 4-amino-5-cyclopropyl-2-(8-(4-fluorobenzyl)imidazo[1,2-a]pyrazin-6-yl)-5-(5-fluoropyridin-2-yl)-5H-pyrrolo[2,3-d]pyrimidin-6(7H)-one] |
| 102% | 0.384 µM | Cc1ccc(C2(C)C(=O)Nc3nc(-c4cn5ccnc5c(Cc5ccc(F)cc5)n4)nc(N)c32)cn1 (stereo not shown) [Example 105A, 4-amino-2-(8-(4-fluorobenzyl)imidazo[1,2-a]pyrazin-6-yl)-5-methyl-5-(6-methylpyridin-3-yl)-5H-pyrrolo[2,3-d]pyrimidin-6(7H)-one] |
| 83% | 0.252 µM | CCC1(c2ccc(F)cn2)C(=O)Nc2nc(-c3cn4ccnc4c(Cc4ccc(F)cc4)n3)nc(N)c21 (stereo not shown) [Example 106A, 4-amino-5-ethyl-2-(8-(4-fluorobenzyl)imidazo[1,2-a]pyrazin-6-yl)-5-(5-fluoropyridin-2-yl)-5H-pyrrolo[2,3-d]pyrimidin-6(7H)-one] |
| 171% | 0.086 µM | CC1(c2ccc(Cl)cn2)C(=O)Nc2nc(-c3cn4ccnc4c(Cc4ccc(F)cc4)n3)nc(N)c21 (stereo not shown) [Example 107A, 4-amino-5-(5-chloropyridin-2-yl)-2-(8-(4-fluorobenzyl)imidazo[1,2-a]pyrazin-6-yl)-5-methyl-5H-pyrrolo[2,3-d]pyrimidin-6(7H)-one] |
| 154% | 0.051 µM | Nc1nc(-c2cn3ccnc3c(Cc3ccccc3F)n2)nc2c1C(c1ccc(Cl)cn1)(C1CC1)C(=O)N2 (stereo not shown) [Example 110A, 4-amino-5-(5-chloropyridin-2-yl)-5-cyclopropyl-2-(8-(2-fluorobenzyl)imidazo[1,2-a]pyrazin-6-yl)-5H-pyrrolo[2,3-d]pyrimidin-6(7H)-one] |
| 138% | 0.005 µM | CC1(c2ccc(Cl)c(F)c2)C(=O)Nc2nc(-c3cn4ccnc4c(CC4CCC4)n3)nc(N)c21 (stereo not shown) [Example 113B, 4-amino-5-(4-chloro-3-fluorophenyl)-2-(8-(cyclobutylmethyl)imidazo [1,2-a]pyrazin-6-yl)-5-methyl-5H-pyrrolo[2,3-d]pyrimidin-6(7H)-one] |
| 79% | 0.01 µM | CC1(c2ccc(Cl)cn2)C(=O)Nc2nc(-c3cn4ccnc4c(CC4CCC4)n3)nc(N)c21 (stereo not shown) [Example 116A, 4-amino-5-(5-chloropyridin-2-yl)-2-(8-(cyclobutylmethyl)imidazo [1,2-a]pyrazin-6-yl)-5-methyl-5H-pyrrolo[2,3-d]pyrimidin-6(7H)-one] |
| 103% | 0.033 µM | CC1(c2ccc(OC(F)F)cn2)C(=O)Nc2nc(-c3cn4ccnc4c(CC4CCC4)n3)nc(N)c21 (stereo not shown) [Example 117A, 4-amino-2-(8-(cyclobutylmethyl)imidazo [1,2-a]pyrazin-6-yl)-5-(5-(difluoromethoxy)pyridin-2-yl)-5-methyl-5H-pyrrolo[2,3-d]pyrimidin-6(7H)-one] |
| 121% | 0.161 µM | CC1(c2ccc(C(F)(F)F)cn2)C(=O)Nc2nc(-c3cn4ccnc4c(CC4CCC4)n3)nc(N)c21 (stereo not shown) [Example 119B, 4-amino-2-(8-(cyclobutylmethyl)imidazo [1,2-a]pyrazin-6-yl)-5-methyl-5-(5-(trifluoromethyl)pyridin-2-yl)-5H-pyrrolo[2,3-d]pyrimidin-6(7H)-one] |
| 112% | 0.031 µM | CC(C)(C)CCc1nc(-c2nc(N)c3c(n2)NC(=O)C3(C)c2ccc(Cl)cc2)cn2ccnc12 (stereo not shown) [Example 120A, 4-amino-5-(4-chlorophenyl)-2-(8-(3,3-dimethylbutyl)imidazo[1,2-a]pyrazin-6-yl)-5-methyl-5H-pyrrolo[2,3-d]pyrimidin-6(7H)-one] |
